{"source": "patent US6352980B1", "about": "“Estrenes for inducting hypothalamic effects” (Pherin Pharmaceuticals, Inc., priority 1991, dated 2002)", "key": {"[1]": {"test_system": "human vomeronasal organ (VNO)", "assay": "Local electrical potential of the VNO on localized gaseous stimulation (Example 52)", "assay_type": "in vivo", "conditions": "for VNO response, males versus females (sexual dimorphism): FIG. 2B; for VNO response: male subjects, about 25 pg to the nasal cavity, response measured in mV×s, FIG. 2A", "experimental": "(§1) A non-invasive method has been employed to record local electrical potentials from the human vomeronasal organ (VNO) and from the olfactory epithelium (OE). Localized gaseous stimulation was applied to both nasal structures at different instances using specially designed catheter/electrodes connected to a multichannel drug delivery system.\n(§2) The study was performed on ten clinically normal (screened) volunteers—2 males and 8 females, ranging in age from 18 to 85 years. The studies were conducted without general or local anesthetics.\n(§3) The catheter/electrodes were designed to deliver a localized stimulus and simultaneously record the response. In the case of VNO recording, the right nasal fosa of the subject was explored using a nasoscope (nasal specula) and the vomeronasal opening was localized close to the intersection of the anterior edge of the vomer and the nasal floor. The catheter/electrode was gently driven through the VNO-opening and the electrode tip placed in the organ's lumen at 1 to 3 mm from the opening. The nasoscope was then removed. In the case of the OE, recording the procedure was similar except the positioning of the catheter/electrode was gently placed deep in the lateral part of the medial nasal duct, reaching the olfactory mucosa.\nLocalized gaseous stimulation was done through the catheter/electrode. A constant stream of clean, nonodorous, humidified air at room temperature was continuously passed through a channel of the stimulating system. The stimulating ligand substances were diluted in propylene glycol, mixed with the humidified air, and puffed for from 1 to 2 seconds through the catheter/electrode. It is estimated that this administration provides about 25 pg of steroid-ligand to the nasal cavity.\n(§4) The response is measured in millivolt-seconds (mV×s)."}, "[2]": {"test_system": "olfactory epithelium (OE)", "assay": "Local electrical potential of the olfactory epithelium on localized gaseous stimulation (Example 52)", "assay_type": "in vivo, human", "conditions": "both males and females; compared to clove; FIG. 2C", "experimental": "as §1, §2, §3\nLocalized gaseous stimulation was done through the catheter/electrode. […]\nas §4"}, "[3]": {"test_system": "VNO", "assay": "Electro-vomeronasogram (EVG) (Example 57)", "assay_type": "in vivo, human", "conditions": "male subjects (ages 20 to 38); 100 fmoles; 1 second pulses; FIG. 6A", "experimental": "The following electrophysiological studies were performed in 60 clinically normal human volunteers of both sexes (30 male and 30 female) whose ages ranged from 20 to 45 years. No anesthetics were used, and female subjects were excluded if pregnant.\nThe stimulation and recording system consists of a “multifunctional miniprobe” described elsewhere (Monti-Bloch, L. and Grosser, B. l. (1991) “Effect of putative pheromones on the electrical activity of the human vomeronasal organ and olfactory epithelium,” J. Steroid Biochem. Molec. Biol. 39:573-582.). The recording electrode is a 0.3 mm silver ball attached to a small (0.1 mm) silver wire insulated with Teflon© the surface of the electrode is first treated to produce a silver chloride interface, and is then covered with gelatin It is positioned within a small caliber Teflon© catheter (dia=5 mm) such that the tip of the electrode protrudes approximately 2 mm. The Teflon© catheter is 10 cm in length and constitutes the terminal extension for a multichannel delivery system which delivers a continuous air stream carrying discreet pulses of chemosensory stimuli. The air stream first passes into a small chamber and is bubbled through a solution containing either a vomeropherin or an olfactant in a diluent or the diluent alone. A solenoid is used to rapidly redirect the air stream from the chamber to a route which bypasses the chamber. This creates a discreet pulse of stimulant in the air stream. A second, outer Teflon® tube with a diameter of 2 mm surrounds the catheter-electrode assemblage, and its central end is connected to an aspirator that provides continuous suction of 3 ml/s. This concentric arrangement of the outer suction tube allows the emitted chemosensory stimuli to be localized to an area we call a “minifield” (approx. dia=1 mm), and it avoids diffusion of substances either to the area outside the intended stimulation site or into the respiratory system. The entire stimulating and recording assemblage may be positioned either on the neurosensory epithelium within the VNO, or on the surface of the olfactory or respiratory epithelium.\nElectro-vomeronasogram (EVG): Recordings are carried out in a quiet room with the subject supine; the multi-functional miniprobe is initially stabilized within the nasal cavity using a nasal retractor placed in the vestibule. Reference and ground electrodes consist of silver discs (8 mm), both of which are positioned on the glabella.\nThe entrance to the VNO, or vomeronasal pit, is identified by first dilating the nasal aperture and vestibule. A 6× magnifying binocular loupe with halogen illumination is then used to introduce the tip of the Teflon® catheter and recording electrode assemblage into the VNO opening where it is stabilized at an approximate depth of 1 mm within the vomeronasal passage. Optimal placement of the recording electrode is signaled after testing for an adequate depolarization in response to a test substance.\nElectrical signals from the recording electrode are fed to a DC amplifier after which they are digitized, computer monitored, and stored. The peak-to-peak amplitude of the signals is measured, and the area under the depolarization wave is integrated, while continuously monitoring the signal both on the computer screen and on a digital oscilloscope. Artifacts produced by respiratory movements are deleted by training the subjects to practice mouth breathing with velopharyngeal closure.\nChemosensory Stimulants: Olfactory test substances are cineole, and 1-carvone; vomeropherins are A, B, C, E and F. (Vomeropherins were supplied by Pherin Corporation, Menlo Park, Calif.), Samples of vomeropherins In. concentration of 25-800 fmoles are delivered in the continuous air stream for durations from 300 milliseconds to 1 second. Usually, intervals of 3 to 5 minutes separated each series of short test pulses. […]"}, "[4]": {"test_system": "VNO", "assay": "Electrodermal activity (EDA) on vomeropherin stimulation of the VNO", "assay_type": "in vivo, human", "conditions": "male subjects, n=30; p<0.01; FIG. 6C", "experimental": "(§5) Cortical evoked activity was induced by VNO stimulation with vomeropherins, and olfactory stimulation with odorants delivered in 300 ms air pulses. It was recorded using standard electroencephalographic (EEG) electrodes placed at positions Cz-A1 and Tz-A1 of the international […] system; the ground electrode was placed on the mastoid process. Electrodermal activity (EDA) was recorded using standard 8 mm silver electrodes in contact with palmar skin of the medial and ring fingers, respeCtively, through a conductive gel interface. Skin temperature (ST) was recorded by a small (1.0 mm) thermistor probe placed in the right ear lobe. Peripheral arterial pulse (PAP) was monitored with a plethysmograph attached to the tip of the index finger. Respiratory frequency (RF) was measured with an adjustable strain gauge placed around the lower thorax. All electrical signals were DC amplified, digitized (MP-100, Biopac Systems) and continuously monitored utilizing a computer.\n(§6) Statistical Analysis: EVGs or EOGS, peak-to-peak changes and frequency changes of other parameters were measured and statistically analyzed. The significance of the results was determined by either using paired t-tests or analysis of variance (ANOVA).\nReflex Effects of Vomeropherins: Studies were conducted to determine the central nervous system (CNS) reflex responses to vomeropherin stimulation of the VNO. The sexually dimorphic local responses induced by vomeropherins (FIGS. 6A and B) were mirrored in the autonomic response of male & female subjects. […] In female subjects."}, "[5]": {"test_system": "VNO", "assay": "Skin temperature (ST) on vomeropherin stimulation of the VNO", "assay_type": "in vivo, human", "conditions": "30 male subjects; p<0.01; FIG. 6G", "experimental": "as §5, §6\nIn female subjects vomeropherins produced changes in EDA and ST with a greater standard deviation than in males."}, "[6]": {"test_system": "VNO", "assay": "Cortical activity (EEG) on VNO stimulation with vomeropherins", "assay_type": "in vivo, human", "conditions": "males; 200 fmoles; air pulses 300 ms to 1 sec; FIG. 6E", "experimental": "as §5, §6\n[…] […] Synchronization of the EEG was sustained for 1.5 to 2.7 minutes after application of a single pulse of active substance."}, "[7]": {"test_system": "VNO", "assay": "Comparison of change in receptor potential induced by two Estrene steroids (Example 55)", "assay_type": "in vivo, human", "conditions": "60 picograms; a subject; FIG. 5", "experimental": "60 picograms of each steroid and of a propylene glycol control were administered to a subject as described in Example 21."}, "[8]": {"test_system": "VNO", "conditions": "2% lidocaine applied to the respiratory epithelium of the nasal septum; cited from earlier work"}}, "note": "“Also recorded” adds a separate entry of the source."}
{"smiles": "C[C@]12CC[C@@H]3c4ccc(O)cc4CC[C@H]3[C@@H]1C[C@@H](O)[C@@H]2O", "note": "[1,3,5(10)-Estratrien-3,16α,17β-triol, reference compound]", "values": [{"measurement": "VNO response, males versus females (sexual dimorphism)", "setting": "[1]", "result": "approximately four times as strong in males as it is in females"}, {"measurement": "VNO response", "setting": "[1]", "result": "strong VNO response"}, {"measurement": "OE response", "setting": "[2]", "result": "low compared to a strong odorant such as clove"}]}
{"smiles": "C[C@@]12C=CC[C@H]1[C@@H]1CCc3cc(O)ccc3[C@H]1CC2", "note": "[C, 1,3,5(10),16-Estratetraen-3-ol]", "values": [{"measurement": "VNO response, males versus females (sexual dimorphism)", "setting": "[1]", "result": "approximately four times as strong in males as it is in females"}, {"measurement": "VNO response", "setting": "[1]", "result": "significantly stronger VNO response in males than do the other compounds tested"}, {"measurement": "OE response", "setting": "[2]", "result": "low compared to a strong odorant such as clove"}, {"measurement": "EVG average response (mean)", "setting": "[3]", "result": 6.4, "unit": "mV"}, {"measurement": "skin resistance (electrodermal activity, EDA)", "setting": "[4]", "result": "decreased skin resistance"}, {"measurement": "skin temperature (ST)", "setting": "[5]", "result": "significant increase in skin temperature"}, {"measurement": "alpha cortical activity", "setting": "[6]", "result": "significantly increased alpha cortical activity"}]}
{"smiles": "COc1ccc2c(c1)CC[C@@H]1[C@@H]2CC[C@]2(C)C=CC[C@@H]12", "note": "[D, 3-Methoxy-Estra-1,3,5(10)16-tetraene]", "values": [{"measurement": "change in receptor potential", "setting": "[7]", "result": "greater change in receptor potential than did 1,3,5(10),16-Estratetraen-3-yl acetate"}, {"measurement": "EVG average response (mean)", "setting": "[3]", "result": 15.1, "unit": "mV"}, {"measurement": "skin temperature (ST)", "setting": "[5]", "result": "significant temperature decrease"}, {"measurement": "alpha cortical activity", "setting": "[6]", "result": "significantly increased alpha cortical activity; also recorded: strongest effect"}]}
{"smiles": "CCN(CC)CC(=O)Nc1c(C)cccc1C", "note": "[lidocaine]", "values": [{"measurement": "effect of local anesthetic on the EVG", "setting": "[8]", "result": "neither blocks nor diminishes the EVG"}]}
